Here are results for seven compounds from ChEMBL document CHEMBL2034917, “Multifunctional mercapto-tacrine derivatives for treatment of age-related neurodegenerative diseases” (J Med Chem, 2012).

Series [1] has as its system SH-SY5Y. Description: Neuroprotective activity in human SH-SY5Y cells assessed as protection against H2O2-induced oxidative stress at 30 uM incubated for 1 hr prior to H2O2-challenge measured after 12 hrs by MTT assay. It is filed as functional. Background: Formazan colour is commonly taken as a measure of viable cells.
In series [2] the test system is SH-SY5Y. Briefly: Neuroprotective activity in human SH-SY5Y cells assessed as protection against H2O2-induced oxidative stress at 10 uM incubated for 1 hr prior to H2O2-challenge measured after 12 hrs by MTT assay. Format: functional.
The subject of series [3] is SH-SY5Y. Description: Neuroprotective activity in human SH-SY5Y cells assessed as protection against H2O2-induced oxidative stress at 1 uM incubated for 1 hr prior to H2O2-challenge measured after 12 hrs by MTT assay. It is filed as functional.
Series [4] has as its system SH-SY5Y. Description: Neuroprotective activity in human SH-SY5Y cells assessed as protection against H2O2-induced oxidative stress at 3 uM incubated for 1 hr prior to H2O2-challenge measured after 12 hrs by MTT assay. It is filed as functional.
Another series concerns the target Acetylcholinesterase (Electrophorus electricus, UniProt O42275). Description: Inhibition of electric eel acetylcholine esterase using […] as substrate incubated for 5 mins prior to substrate addition measured every 3 mins by Ellman's assay.
The next series has as its target Cholinesterase (Equus caballus, UniProt P81908).
For series [5], the system named is Hippocampus. Description: Neuroprotective activity in Sprague-Dawley rat hippocampal CA1 region assessed as enhancement of high frequency stimulation-induced long-term potentiation by measuring field excitatory postsynaptic potentials at 50 uM incubated for 5 mins prior to HFS-induction measured after 10 mins by electrophysiology assay (reference value: 133.7 +/- 3.6%). Format: functional.

Series [6] relates to Rattus norvegicus. Briefly: Hepatotoxicity in Sprague-Dawley rat assessed increase in aminotransferase level in serum at 6 umol/100g of body weight, ip up to 120 hrs. It is filed as toxicity, organism-based. To be noted: in vivo.
Series [7] deals with Rattus norvegicus. Description: Hepatotoxicity in Sprague-Dawley rat assessed increase in alanine aminotransferase level in serum at 6 umol/100g of body weight, ip up to 120 hrs. It is filed as toxicity, organism-based. The conditions noted are these: in vivo.
Series [8] deals with SH-SY5Y. Briefly: Neuroprotective activity in human SH-SY5Y cells assessed as protection against H2O2-induced oxidative stress incubated for 1 hr prior to H2O2-challenge measured after 12 hrs by MTT assay. Format: functional, cell-based.
Series [9] deals with Hippocampus. Description: Neuroprotective activity in Sprague-Dawley rat hippocampal CA1 region assessed as enhancement of high frequency stimulation-induced long-term potentiation by measuring field excitatory postsynaptic potentials at 50 uM incubated for 5 mins prior to HFS-induction measured after 10 mins by electrophysiology assay (reference value: 134.3 +/- 3.9%). It is filed as functional.

In series [10] the test system is Rattus norvegicus. Briefly: Neuroprotective activity in Sprague-Dawley rat assessed as enhancement of high frequency stimulation-induced long-term potentiation in hippocampus at 50 uM, icv after 3 hrs (reference value: 126 +/- 3.6%). Format: functional.
Series [11] has as its target Acetylcholinesterase (Electrophorus electricus) (UniProt O42275). Briefly: Mixed type inhibition of electric eel acetylcholine esterase using […] as substrate by Lineweaver-Burk reciprocal plot analysis.
For series [12] the target is unchanged. Briefly: Time dependent inhibition of electric eel acetylcholine esterase using […] as substrate incubated for 5 mins prior to substrate addition measured for 2 to 40 mins by Ellman's assay. Background: DTNB colorimetry detects thiols as they appear.
The subject of series [13] is Hippocampus. Briefly: Neuroprotective activity in Sprague-Dawley rat hippocampal CA1 region assessed as enhancement of high frequency stimulation-induced long-term potentiation by measuring field excitatory postsynaptic potentials incubated for 5 mins prior to HFS-induction measured after 10 mins by electrophysiology assay (reference value: […] +/- 5.3%). Format: functional.

Activity calls are given as the source filed them. No cut-off for these calls is given here.

Cholinesterase, sequence (P81908 whole entry): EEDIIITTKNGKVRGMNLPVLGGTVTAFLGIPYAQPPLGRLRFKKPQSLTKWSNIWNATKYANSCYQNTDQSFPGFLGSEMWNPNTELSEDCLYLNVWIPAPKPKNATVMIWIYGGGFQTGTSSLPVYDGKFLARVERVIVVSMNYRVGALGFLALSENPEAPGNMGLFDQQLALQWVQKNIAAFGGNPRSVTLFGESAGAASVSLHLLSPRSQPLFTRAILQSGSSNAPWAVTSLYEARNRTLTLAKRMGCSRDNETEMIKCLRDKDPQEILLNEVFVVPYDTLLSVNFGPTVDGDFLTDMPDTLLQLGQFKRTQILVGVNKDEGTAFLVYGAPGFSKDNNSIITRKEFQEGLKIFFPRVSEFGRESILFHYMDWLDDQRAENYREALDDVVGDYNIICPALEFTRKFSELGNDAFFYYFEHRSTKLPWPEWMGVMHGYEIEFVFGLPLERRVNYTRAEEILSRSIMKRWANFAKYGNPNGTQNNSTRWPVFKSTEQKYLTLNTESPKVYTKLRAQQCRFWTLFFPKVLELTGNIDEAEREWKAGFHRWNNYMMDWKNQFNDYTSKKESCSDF
Acetylcholinesterase, sequence (O42275 whole entry): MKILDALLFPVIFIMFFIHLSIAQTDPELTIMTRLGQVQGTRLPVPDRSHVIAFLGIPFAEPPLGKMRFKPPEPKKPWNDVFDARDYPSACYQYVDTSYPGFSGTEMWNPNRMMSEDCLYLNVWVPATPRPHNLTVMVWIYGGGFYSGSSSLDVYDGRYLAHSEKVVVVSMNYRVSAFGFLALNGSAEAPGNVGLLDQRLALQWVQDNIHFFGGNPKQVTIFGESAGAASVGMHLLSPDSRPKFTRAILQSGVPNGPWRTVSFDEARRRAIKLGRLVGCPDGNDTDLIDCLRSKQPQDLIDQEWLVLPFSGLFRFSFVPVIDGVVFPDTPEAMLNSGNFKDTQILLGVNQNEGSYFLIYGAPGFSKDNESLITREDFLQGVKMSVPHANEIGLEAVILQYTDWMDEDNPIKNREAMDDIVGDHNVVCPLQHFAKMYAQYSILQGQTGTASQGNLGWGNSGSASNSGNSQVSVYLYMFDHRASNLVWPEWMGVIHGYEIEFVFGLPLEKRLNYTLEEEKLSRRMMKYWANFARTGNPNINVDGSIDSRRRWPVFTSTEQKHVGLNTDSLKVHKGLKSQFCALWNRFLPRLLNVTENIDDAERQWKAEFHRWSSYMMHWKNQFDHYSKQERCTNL
Acetylcholinesterase (Electrophorus electricus), sequence (O42275 24-633 limits assumed): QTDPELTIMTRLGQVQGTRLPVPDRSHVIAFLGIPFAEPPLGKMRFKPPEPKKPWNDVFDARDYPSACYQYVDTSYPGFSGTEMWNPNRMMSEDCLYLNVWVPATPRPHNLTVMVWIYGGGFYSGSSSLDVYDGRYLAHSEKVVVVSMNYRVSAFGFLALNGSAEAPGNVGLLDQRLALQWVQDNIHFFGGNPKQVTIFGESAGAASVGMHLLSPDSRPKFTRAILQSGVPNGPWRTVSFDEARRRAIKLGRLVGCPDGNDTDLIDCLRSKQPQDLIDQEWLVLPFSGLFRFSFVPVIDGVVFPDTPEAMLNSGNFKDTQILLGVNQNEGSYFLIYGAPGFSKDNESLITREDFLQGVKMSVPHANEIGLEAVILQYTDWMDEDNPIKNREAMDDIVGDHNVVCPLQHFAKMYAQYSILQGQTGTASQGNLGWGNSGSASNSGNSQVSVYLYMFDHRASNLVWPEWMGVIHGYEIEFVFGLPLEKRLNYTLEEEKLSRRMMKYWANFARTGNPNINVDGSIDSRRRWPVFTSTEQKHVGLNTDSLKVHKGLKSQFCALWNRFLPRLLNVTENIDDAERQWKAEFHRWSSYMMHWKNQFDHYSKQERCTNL

For `Cc1c(C)c2c(c(C)c1O)CCC(C)(C(=O)O)O2` (stereo unspecified) [TROLOX], the values for the Activity with SH-SY5Y [1] and in the series with SH-SY5Y [2] were 59.1% and 44.2%, respectively.
`O=C(CCS)NCCCCNc1c2c(nc3ccccc13)CCCC2`: the Activity with SH-SY5Y [3] is 23.8%; in the series with SH-SY5Y [1], 38.2%; in the series with SH-SY5Y [4] it was 5.8%; with SH-SY5Y [2], 21.5%. For the same compound, the results for the concentration for half-maximal inhibition (IC50) against Acetylcholinesterase and on Cholinesterase were 8.32 µM and 129 nM, respectively.
For the compound `O=C(CCS)NCCCNc1c2c(nc3ccccc13)CCCC2`, the Activity was 45.9% in the series with SH-SY5Y [3]; 160.8% with Hippocampus [5]; 34% in the series on SH-SY5Y [1]; “Non-toxic” with Rattus norvegicus [6]; 22% with SH-SY5Y [4]; 16.7% with SH-SY5Y [2]. In the series on Rattus norvegicus [7], the Activity result was “Non-toxic”. Also, the values for the IC50 against Acetylcholinesterase and on Cholinesterase were 6.03 µM and 182 nM, respectively.
`CC(=O)SCCC(=O)NCCCCNc1c2c(nc3ccccc13)CCCC2`: the Activity was 21.7% in the series on SH-SY5Y [3]; 56.5% in the series on SH-SY5Y [1]; 30.1% with SH-SY5Y [4]; 43.6% in the series on SH-SY5Y [2]; “Dose-dependent effect” with SH-SY5Y [8]. Moreover, the IC50 (as a rule, the concentration that gives 50% inhibition) is 7.24 µM against Acetylcholinesterase and 155 nM against Cholinesterase.
For `O=C(CCS)NCCCCCCNc1c2c(nc3cc(Cl)ccc13)CCCC2`, the Activity with SH-SY5Y [3] was 52.3%; in the series on Hippocampus [9] it was 157.1%; with SH-SY5Y [1] it was 37.8%; with SH-SY5Y [4], 27.2%; in the series on SH-SY5Y [2], 24.5%; in the series on Rattus norvegicus [10], 149%. For the same compound, the IC50 at Acetylcholinesterase is 0.178 µM; against Cholinesterase it was 178 nM.
Consider `CC(=O)SCCC(=O)NCCCCCCNc1c2c(nc3cc(Cl)ccc13)CCCC2`, for which, in [11], the inhibition result is “Active”. Further, the Activity was 8.1% in the series on SH-SY5Y [3]; 34% in the series on SH-SY5Y [1]; 17.1% in the series on SH-SY5Y [4]; 28.5% with SH-SY5Y [2]; “Dose-dependent effect” with SH-SY5Y [8]. For the same compound, the inhibition result in series [12] was “inactive”. The IC50 on Acetylcholinesterase is 0.0427 µM; against Cholinesterase, 91.2 nM.
Turning to `CC(=O)SCCC(=O)NCCCNc1c2c(nc3ccccc13)CCCC2`, the Activity is on record as 32.4% with SH-SY5Y [3]; 50.6% in the series on SH-SY5Y [1]; “Non-toxic” in the series on Rattus norvegicus [6]; 35.9% in the series on SH-SY5Y [4]; 38.2% in the series with SH-SY5Y [2]; 136.2% in the series on Hippocampus [13]. For the same compound, the Activity entry in the series with Rattus norvegicus [7] is “Non-toxic”; with SH-SY5Y [8], “Dose-dependent effect”. Besides, the IC50 on Acetylcholinesterase was 1.74 µM; against Cholinesterase, 229 nM.
